Results on two compounds are retold here after patent publication US20070238680A1, “Substance and process for preventing a genetic defect from being passed onto offspring” (priority 2006, published 2007).

The test system of one assay is N/H sperm. The assay is described as follows: Sperm motility after about 24 hours in potassium-fortified sperm extender, computer-assisted semen analyzer. Format: cell-based, horse. The method, then: (§1) Three curves are plotted—one for motility of N/N sperm, one for N/H sperm and one for H/H sperm. […] In the tests, the sperm was kept in the particular sperm extender formula for about 24 hours. It was then diluted with standard sperm extender (with the low potassium concentration) at about an 8-to-1 ratio in a bullet tube, and its motility was measured using a computer-assisted semen analyzer. Note that the bold lines on the graph are linear extrapolations between the actual data points, which are shown in squares, triangles and diamonds, and are not accurate representations of the actual values between those data points.

A further assay has as its system N/N sperm. The assay is described as above. Format: cell-based, horse. The note with it: for motility of the N/N sperm sample: about 24 hours, then re-extended about 8-to-1. The method, then: as §1
Another assay relates to H/H sperm. The assay is described as above. Format: cell-based, horse. On the procedure: as §1
As shown in the bottom-most curve in FIG. 6, as the potassium concentration increases, the motility of the H/H sperm sample drops to zero somewhere prior to 50 times the standard potassium concentration. Because all sperm in the H/H sample contain the defective sperm, we conclude that all defective sperm are immobilized at this concentration. More importantly, the sperm are permanently immobilized, as the test measured motility after the sperm sample was re-extended, restoring metabolic potassium levels.

Assay [1] concerns genetically defected sperm versus healthy sperm. Particulars: potassium concentration in the extra-cellular fluid in the same range for all salts.
The mark [2] stands for this setting: 70 times the normal potassium concentration, extrapolated from the curve.
[3] abbreviates: 100 times the normal potassium concentration.

As to `[Cl-].[K+]` [potassium chloride], in the assay with N/H sperm (50 times the normal potassium concentration, about 24 hours, then re-extended about 8-to-1), the “motility percentage of N/H sperm cell sample” value is listed as “about 53%”. For the same compound, the “motility rate for N/H sperm cells” value in the assay with N/H sperm (setting [2]) is given as around 38%. The results for the “motility of the N/N sperm sample” value with N/N sperm (50 times standard potassium concentration) and in the assay on N/N sperm (setting [3]) were “about 85%” and 29%, respectively. The “motility rate for N/N sperm cells” value in the assay on N/N sperm (setting [2]) is on record as around 60%. In the assay on H/H sperm (setting [3]), the “impairment of defective cells” value was “completely and permanently impaired”. In the assay with H/H sperm (H/H sperm after high potassium exposure), the “microscopic examination of the morphology of the sperm cells” value is recorded as “tails were permanently curled around the cell body”. The “motility of the H/H sperm sample” value in the assay with H/H sperm (somewhere prior to 50 times the standard potassium concentration, about 24 hours, then re-extended about 8-to-1) is “zero”. Also, in assay [1], the “suitable triggering event that impaired genetically defected sperm without also impairing healthy sperm” value was “yielded a suitable triggering event”.

On to “potassium phosphate [reference compound]”, for which the “suitable triggering event that impaired genetically defected sperm without also impairing healthy sperm” value in assay [1] is recorded as “failed to produce such a suitable outcome”.
